Results taken from patent publication US11261232B2, “TNFRSF14 / HVEM proteins and methods of use thereof” (MEMORIAL SLOAN KETTERING CANCER CENTER, priority 2015, dated 2022).

How the values were obtained:
primary human FL B cells = assay: BCR signaling (pSyk, pERK) in anti-IgG-stimulated primary FL B cells; format: cell-based; details: solHVEM 10 μg/ml
Description: FIG. 4A-E. HVEM blocks BCR signaling in a cell autonomous and BTLA dependent manner. FIG. 4A and FIG. 4B, Quantification of FACS analysis of phosphorylated BTK (pBTK) expression in BCL1 cells after stimulation with anti-IgM in the presence of solHVEM (10 μg/m1) or Ibrutinib (10 nM) without (FIG. 4A) or with (FIG. 4B) the knockdown of BTLA (shBTLA); FIG. 4C, FACS analysis of BTLA expression on purified primary human FL B cells distinguishes samples with high (BTLA^hi) and low (BTLAlo) surface BTLA expression); FIG. 4D, FACS analysis for the indicated signaling molecules in human primary FL B cells that were BTLA^hi or BTLAlo and stimulated with anti-human IgG (3 min; 10 μg/ml and H2O2 1 mM) in the presence or absence of the soluble HVEM ectodomain (solHVEM; 10 μg/ml) (right); FIG. 4E, Percentage of pSyk inhibition was calculated by comparing the ratio of MFI of pSyk+/−solHVEM and was correlated to BTLA ratio of MFI (r=0.697, p=0.03, Purified FL B cells, n=10, grade 1 and grade 2).
FIG. 11. Effect of HVEM on murine and human FL B cells. […]
Loss of HVEM and BTLA leads to BCR activation in murine lymphomas (FIGS. 2G and 3F). […] Briefly, the BCR signaling pathway in BCL1 mouse lymphoma cells was stimulated with IgM in the presence or absence of solHVEM (10 μg/ml) or the pharmacological BTK inhibitor ibrutinib (10 nM) and BTK phosphorylation was measured as an indicator of BCR pathway activation by flow cytometry. […] BTLA expression was analyzed across ten samples of purified human FL B cells by FACS, and the samples were divided into BTLA″ and BTLA^10 groups (FIG. 4C). […]
Purified IgGpos FL B cells were stimulated using FITC-conjugated goat anti-human IgG (Invitrogen, […]) in the presence of H2O2 (1 mM) with or without solHVEM (10 μg/mL). […] Phosphoprotein activation was quantified using Alexa 647-conjugated anti-pSyk (clone 17A/p-ZAP70), anti-pBLNK (clone j117-1278), or anti-pERK1/2 (clone 20A, BD Biosciences) and analyzed on B cells expressing clonal heavy and light chain gated using the anti-IgG FITC Ab and a PE-conjugated anti-kappa Ab (Southern Biotech).

[1] = system: myc-Bc12 lymphoma cell line; assay: Cell viability by CellTiterGlo; format: cell-based, mouse; details: 5 ug/ml; 24 hours
Description: FIG. 18. sTNFRSF14 decreases cell viability in vitro. Cells of the myc-Bc12 lymphoma cell line were plated at a density of 1×10^5 cells/ml and they were treated with sTNFRSF14 (5 ug/ml) or vehicle. After 24 hours of treatment cell viability was assessed using CellTiterGlo reagent.

Row | Molecule | ERK inhibition in BTLAhi cells (primary human FL B cells; BTLAhi primary FL B cells) | SYK inhibition in BTLAhi cells (primary human FL B cells; BTLAhi primary FL B cells) | SYK and ERK inhibition in BTLAlo cells (primary human FL B cells; BTLAlo primary FL B cells) | cell viability [1]
1 | solHVEM: Leu39-Val202 soluble HVEM ectodomain polypeptide of SEQ ID NO. 8 | inhibition | inhibition | little effect | –
2 | sTNFRSF14: Pro37-Val202 soluble HVEM ectodomain polypeptide of SEQ ID NO. 6 (protein, listed as Homo sapiens) PALPSCKEDEYPVGSECCPKCSPGYRVKEACGELTGTVCEPCPPGTYIAHLNGLSKCLQCQMCDPAMGLRASRNCSRTENAVCGCSPGHFCIVQDGDHCAACRAYATSSPGQRVQKGGTESQDTLCQNCPPGTFSPNGTLEECQHQTKCSWLVTKAGAGTSSSHWV | – | – | – | modest decrease
